From patent publication US6916471B2, “Red blood cells loaded with S-nitrosothiol and uses therefor” (Duke University, priority 1995, dated 2005)

Assays:
rat red blood cells = assay: S-nitrosylation of intraerythrocytic Hb (loading of red blood cells); type: cell-based; details: oxygenated rat red blood cells
Method: Given that Hb is largely contained within red blood cells, potential mechanisms by which S-nitrosylation of intracellular protein might occur were explored. […] Rapid oxidation of Hb was not observed under these conditions. […] Thus, erythrocyte access of RSNOs is thiol group specific.
Incubation of rat erythrocytes with S-nitrosocysteine (equimolar to heme (5 mM); phosphate buffer pH 7.4, 25° C.) leads to rapid formation of intracellular SNO-Hb(FeII)O2. […] By 60 min, 3 of the 4 available SH groups of Hb are S-nitrosylated (note that rat Hb contains 4 reactive SH groups). […] Spectrum A is that of SNO-Hb isolated from erythrocytes following G-25 chromatography. Treatment of A with dithionite results in reduction of the S—NO moiety, liberating free NO which is autocaptured by deoxy Hb, forming Hb(FeII)NO (note that dithionite simultaneously deoxygenates Hb) (spectrum C). […] The spectrum of Hb(FeII)NO containing 4 NO's per tetramer is shown for comparison (inset, spectrum B).
At shown intervals, red blood cells were pelleted rapidly by centrifugation, washed three times, lysed in deionized water at 4° C., and the cytosolic fraction subjected to rapid desalting across G-25 columns. Intracellular SNO-Hb was measured by the method of Saville (Gaston, B., et al., (1992); Stamler, J. S., et al., Proc. Natl. Acad. Sci. USA, 89:444-448 (1992)), and confirmed spectroscopically (inset of FIG. 3A) as described above.

[1] = test system: rabbit thoracic aorta rings; assay: Oxygen-dependent rabbit aortic ring bioassay of Hb, SNO-Hb, GSNO and SNO-RBCs
Sprague-Dawley rats = assay: Local cerebral blood flow by H2-sensitive microelectrodes; type: in vivo, rat; details: for local cerebral blood flow: 1 μmol/kg infused over 3 minutes
Method: Adult male Sprague-Dawley rats (290-350 g) were anesthetized with sodium pentobarbital (50 mg/kg IP), intubated and ventilated with a small animal respirator (Edco Scientific Inc., Chapel Hill, N.C.) at a rate and tidal volume to maintain normal values of PaCO2 (35-45 mm Hg; PaCO2=systemic arterial blood carbon dioxide tension). The femoral vein and artery were cannulated for infusion of drugs and for continuous monitoring of systemic blood pressure, respectively. Aliquots of arterial blood (200 μl) were drawn periodically to measure blood gas tensions and pH (Instrumentation Laboratory Co., model 1304 blood gas/pH analyzer). The blood was replaced intravenously with three volumes of normal saline. The inspired O2 concentration was varied using premixed gases balanced with nitrogen. The tissue PO2 was measured continuously with polarographic platinum microelectrodes (50 μm O.D. coated with hydrophobic gas permeable Nafion) implanted stereotaxically in both the right and left hippocampus (AP−3.4 mm, ML+2.2 mm), caudate putamen nucleus and substantia nigra (see coordinates below) (Young, W., Stroke, 11:552-564 (1980); Heiss, W. D. and Traupett, H., Stroke, 12:161-167 (1981); Dewhirst, M. W. et al., Cancer Res., 54:3333-3336 (1994); Kerger, H. et al., Am. J. Physiol., 268:H802-H810 (1995)). The PO2 electrodes were polarized to −0.65V against a distant Ag/AgCl reference located on the tail and the current flow was measured using a low-impedance nA-meter. Regional arterial PO2 was adjusted by changing the inspired O2 concentration and atmospheric pressure.
Polarographic hydrogen (H2)-sensitive microelectrodes were implanted stereotaxically in the substantia nigra (AP −5.3 mm, ML −2.4 mm to the bregma, depth 3.2 mm), caudate putamen nucleus (CPN) (AP +0.8 mm, ML −2.5 mm, depth 5.2 mm) and parietal cortex, for measurement of regional blood flow (Young, W., Stroke, 11:552-564 (1980); Heiss, W. D. and Traupett, H., Stroke, 12:161-167 (1981)). The microelectrodes were made from platinum wire and insulated with epoxy, with the exception of the tip (1 mm) which was coated with Nafion. For placement, the electrodes were mounted on a micromanipulator and the rat's head was immobilized in a Kopf stereotaxic frame. H2-sensitive electrodes were polarized to +400 mV against a distant reference electrode on the tail, and the polarographic current was measured using a low-impedance nA meter during and after the inhalation of hydrogen gas (2.5%) for 1 min. Both the hydrogen clearance curves and voltage for oxygen measurements were made using PC WINDAQ (software, DI-200 AC, Dataq Instruments, Inc., Akron, Ohio). Cerebral blood flow was calculated using the initial slope method (Young, W., Stroke, 11:552-564 (1980); Heiss, W. D. and Traupett, H., Stroke, 12:161-167 (1981)). Regional blood flow responses were monitored for 30 min. prior to and 30 min. following drug administration; hemoglobins were given at time 0.
The cerebrovascular effects of SNO-Hb were measured in adult male Sprague-Dawley rats using O2 and H2 (blood flow)-sensitive microelectrodes that were placed stereotaxically in several regions of the brain as for Example 11.
Comparative effects of SNO-Hb (●) and Hb (▪) (1 μmol/kg infused over 3 minutes) on local blood flow in substantia nigra (SN), caudate putamen nucleus, and parietal cortex are shown for three different conditions. […] Baseline blood flow was decreased by ˜10% under 100% O2+3 ATA as compared to 100% O2. n=7 for all data points. Values of tissue/microvascular PO2 ranged from 19-37 mm Hg in 21% O2; from 68-138 mm Hg in 100% O2; and from 365-538 mm Hg in 100%+3 ATA (Duke University Medical Center Hyperbaric Chambers).

Rats = assay: Hemodynamics (blood pressure) at different O2 concentrations; type: in vivo, rat; details: 1 μmol/kg infused over 1 minute; 10 min. post-infusion
Method: Rats were anesthetized by intraperitoneal injection of pentobarbital, and the femoral arteries and veins accessed by local cutdown. The artery was then cannulated and the blood pressure monitored continuously using a P23 XL pressure transducer (Viggo Spectramed, Oxnard, Calif.) attached to a Gould recorder. The femoral vein was used for infusion of drugs and red blood cells containing SNO-Hb (1 ml over 1 min.) and an IBM PC (WINDAQ 200, Dataq Instruments, Inc.; Akron, Ohio) was used for data acquisition.
Drugs were infused through the femoral vein at 1 μmol/kg infused over 1 minute after blood pressure had stabilized (approximately 30 min). Measurements shown (FIG. 11A) were taken at 10 min. post-infusion of drug. […] P<0.05 vs. SNO-Hb; *P<0.05, **P<0.01) vs. baseline blood pressure. n=5-6 for each drug.
The hypotensive effects of SNO-RBCs were potentiated by pre-administration of the NO synthase inhibitor N^G-monomethyl-L-arginine (L-NMMA; 50 mg/kg). n=8 for each data point. Curves different by ANOVA (P<0.01), *P<0.05 vs. L-NMMA. The amount of hemolysis in these experiments was trivial. Infusion of the hemolysate had no effect on blood pressure.

[2] = SNO-Hb decomposition and transnitrosation with glutathione; type: biochemical
Method: The decomposition of SNO-Hb(FeII) is further accelerated by the presence of excess glutathione. Within the dead time of our measurements (˜15 sec) a major fraction of SNO-Hb(FeII) was converted to GSNO.
Hbs in PBS (0.5 mM EDTA, pH 7.4) were incubated in air (oxy) or in a tonometer previously evacuated of O2 (deoxy). SNO-Hb(FeII)O2 decomposition was determined by the method of Saville (Saville, B., Analyst, 83:670-672 (1958)). Spontaneous decomposition of SNO-Hb(FeII) was followed spectrophotometrically by formation of Hb(FeII)NO. […] Rates of NO group transfer were too rapid to measure accurately by the standard methods used in this study.
Data are presented as the amount of GSNO formed relative to the starting SNO-Hb concentration.
Thiol/SNO-Hb exchange, forming GSNO, was verified chemically (Stamler, J. S., et al., Proc. Natl Acad. Sci. USA 89:444-448 (1992)) following trichloroacetic acid precipitation (n=5).

vascular ring = assay: Vessel ring bioassay of SNO-Hb preparations, with or without glutathione; details: for effect of added glutathione on the dose-response: glutathione 100 μM in bioassay chambers; for activity in vascular ring bioassay: no glutathione
From the text: Arterial red blood cells contain two physiologically important forms of hemoglobin: Hb(FeII)O2 and Hb(FeIII) (Antonini et al. (1971)). […] Such findings raise the possibility of functional consequences, perhaps influenced by the redox state of heme and its occupation by ligand.
Details of the vessel ring bioassay have been published (Stamler, J. S., et al., Proc. Natl. Acad. Sci. USA 89:444-448 (1992)). SNO-Hb(FeII)O2 preparations were synthesized with 10-fold excess S-nitrosocysteine (CYSNO) over Hb(FeII)O2 protein (2% borate, 0.5 mM EDTA, ˜15 min incubation), after which desalting was performed across Sephadex G-25 columns. CYSNO was synthesized in 0.5 N HCl, 0.5 mM EDTA and then neutralized (1:1) in 1 M phosphate buffer containing 0.5 mM EDTA. […] The latter was synthesized by treatment of Hb(FeII)O2 with excess ferricyanide, followed by desalting across G-25 columns. SNO-Hb concentrations were verified spectroscopically and the S-nitrosothiol content was determined by the method of Saville (Stamler, J. S., et al., Proc. Nat. Acad. Sci. USA 89:444-448 (1992)). The S-NO/tetramer stoichiometry for both SNO-Hb preparations was ˜2. Oxidation of the heme was undetectable by uv-spectrophotometric methods.

Sprague-Dawley rat = assay: Mean arterial pressure after femoral vein bolus of cell-free Hb and SNO-Hbs; type: in vivo; details: for blood pressure response: bolus, femoral vein, anesthetized rat
From the text: Systemic administration of cell-free Hb results in hypertensive responses which have been attributed to NO scavenging by the heme (Vogel, W. M., et al., Am. J. Physiol. 251:H413-H420 (1986); Olsen, S. B., et al., Circulation 93:329-332 (1996)). To determine if SNO-Hb is free of this adverse affect, and to explore if in vitro mechanisms of NO release extend to the in vivo circumstance, we compared responses to Hb and SNO-Hb infused as a bolus into the femoral vein of anesthetized rats. […] Thus, the profiles of these compounds in vivo closely resemble those seen in vitro (FIG. 4A). […] These changes in mean blood pressure of ˜10% are on the order of those that differentiate normotension from hypertension in man, and in the therapeutic range of some antihypertensive regimens. […] The bioactivity of SNO-Hb in blood, where S—NO/heme stoichiometries approach 1:50,000, is a dramatic illustration of the resistence of this NO-related activity to Hb(Fe) inactivation.
Administration of 2-200 nmol/kg Hb(FeII)O2 (as a bolus) into the femoral vein of a Sprague-Dawley rat is shown to increase mean arterial pressure in a dose-dependent manner. At 200 nmol/kg, mean arterial pressure increased by 25 mm Hg (20±3 mm Hg; n=4; P<0.05). Elevations in blood pressure reversed within 10-15 min. SNO-Hb(FeII)O2 infusions (over the same dose range) are shown to ameliorate Hb(FeII)O2-induced hypertension without causing overt changes in blood pressure. […] A fall in blood pressure was also seen with injection of erythrocytes containing SNO-Hb.
Rats were anesthetized by intraperitoneal injection of pentobarbital and the femoral arteries and veins accessed by local cut down. The artery was then cannulated and the blood pressure monitored continuously using a Viggo Spectramed pressure transducer attached to a Gould recorder. An IBM PC (DATA Q Codas) was used for data acquisition.

With N[C@@H](CCC(=O)N[C@@H](CSN=O)C(=O)NCC(=O)O)C(=O)O [S-nitrosoglutathione] the “formation of intraerythrocytic SNO-Hb” value (rat red blood cells) was “not”, the “O2 dependence of vasorelaxant effects” value ([1]; 95%, 21%, <1% O2) was “largely independent of PO2” and the brain perfusion (Sprague-Dawley rats; 100% O2 and 100% O2+3 ATA) was “increased brain perfusion”. The “change in blood pressure” value (Rats) was “decreased blood pressure”.

For S-nitrosohemoglobin [SNO-Hb], the “effect on tone of rings contracted with phenylephrine under hypoxia” value ([1]; 1 μM, 6-7 torr) was “caused relaxations”, the “effect of glutathione on vasorelaxant response” value ([1]; 10 μM glutathione, greatest at <1% O2) was “potentiates the vasorelaxant response” and the “concentration-effect responses in R-structure” value ([1]; 95% O2) was “virtually identical to those of native Hb”. The “local cerebral blood flow” value (Sprague-Dawley rats; 21% O2) was “improved blood flow in all three regions of the brain tested”, the “local cerebral blood flow” value (Sprague-Dawley rats; 100% O2) was “significantly attenuated” and the “local cerebral blood flow” value (Sprague-Dawley rats; 100% O2+3 ATA) was “tended to decrease cerebral flow to similar extents”. For the same compound, the “change in blood pressure” value (Rats) was “significantly less of an increase in blood pressure than Hb”.

In the case of “SNO-Hb(FeII): S-nitrosohemoglobin in the deoxy state”, the “rate of RSNO decomposition (and transfer)” value ([2]; deoxy versus oxy state, PBS pH 7.4) is reported as “much faster in the deoxy conformation” and the “effect on vessel tone in T-structure” value ([1]; <1% O2 (˜6 torr)) is reported as “modest effect on baseline tone”.

In the case of SNO-Hb(FeII)O2: S-nitroso-oxyhemoglobin, the “effect of added glutathione on the dose-response” value (vascular ring) is reported as “potentiates the dose-response”, the “activity in vascular ring bioassay” value (vascular ring) is reported as “modest NO-like activity” and the blood pressure response (Sprague-Dawley rat) is reported as “did not exhibit hypertensive effects”.

With “SNO-Hb(FeIII): S-nitrosohemoglobin with heme oxidized to FeIII” the “effect of added glutathione on the dose-response” value (vascular ring) was “potentiates the dose-response”, the “activity in vascular ring bioassay” value (vascular ring) was “vasodilator” and the “rate of NO group transfer to glutathione” value ([2]; SNO-Hb 100 μM, glutathione 10 mM, versus SNO-Hb(FeII)O2) was “more rapid”. For the same compound, the “mean arterial pressure, post” value (Sprague-Dawley rat; after 200 nmol/kg (highest dose)) was 74±6 mm Hg, the “time for blood pressure to normalize” value (Sprague-Dawley rat; after hypotensive response) was 10 min and the “mean arterial pressure, pre” value (Sprague-Dawley rat; before 200 nmol/kg) was 108±4 mm Hg. The blood pressure response (Sprague-Dawley rat) was “elicited hypotensive responses”.
